In article PMC11460632, “Chemical modification of hyaluronan oligosaccharides differentially modulates hyaluronan–hyaladherin interactions” (The Journal of Biological Chemistry, 2024):
“Also recorded” adds a separate entry of the source. Read-outs that look alike come from different tables or passages of the source.

What was measured:
[1] = biological target: T1, Link_TSG6 (Homo sapiens, UniProt P98066); experiment: ITC of HA oligosaccharides binding to Link_TSG6; conditions: for N: 0.029 mM Link_TSG6, 0.29 mM oligosaccharide; for % Binding affinity Link_TSG6: Table 6, relative to unmodified oligosaccharide of the same length, by ITC
T1 construct: made in house
Protocol: ITC experiments were performed using a MicroCal PEAQ-ITC instrument (Malvern Instruments). Oligosaccharide stock solutions were prepared at 0.29 mM (in 5 mM MES, pH 6.0) and injected (18 × 2 μl with 120 s spacing between injections) into the cell containing ∼200 μl Link_TSG6 (0.029 mM) in matched buffer at 25 °C. Data were fit to a one site binding model, after subtracting the heats from the last three injections to account for heat of dilution of the oligosaccharide into buffer. Each oligosaccharide was analyzed in four independently performed ITC experiments.

[2] = biological target: T2, hisCD44_HABD^20–169 (Homo sapiens, UniProt P16070); experiment: MST of HA oligosaccharides binding to hisCD44_HABD^20–169; conditions: for % of binding to hisCD44_HABD^20–169 compared to the unmodified oligosaccharide of the same length / % HAx^AN: percentage of binding affinity (KB) compared to the unmodified oligosaccharide of the same length / Kd / Fold increase in affinity for CD44_HABD compared to the unmodified oligosaccharide: MST; for % HAx^AN: percentage of binding affinity (KB) compared to the unmodified oligosaccharide of the same length / Kd: Table 5; for Kd: 10 mM Hepes pH 7.5, 150 mM NaCl, 0.05% Tween-20, 25 °C, mean ± SD, three titrations, read-out: KD; for % Binding affinity hisCD44_HABD^20–169: Table 6, relative to unmodified oligosaccharide of the same length, by MST
T2 construct: A novel construct consisting of residues 20 to 169 of human CD44 and an N-terminal six-histidine tag; made in house
Protocol: For hisCD44_HABD^20–169, interactions with HA oligosaccharides were assessed using MST. Protein (200 nM) was labeled with 5 μM red-Tris-NTA-650 dye following the manufacturer’s instructions in 10 mM Hepes, pH 7.4, 150 mM NaCl, 0.05% (v/v) Tween-20 (interaction buffer). Stock solutions of HA oligosaccharides (5 mM in interaction buffer) were serially diluted (1:1 in interaction buffer) 16 times before each concentration was mixed with an equal volume of labeled protein (10 nM final concentration hisCD44_HABD^20–169). Samples were loaded into standard glass capillaries (NanoTemper) and thermophoresis measured at 25 °C (with active temperature control) using a Monolith NT.115pico instrument (NanoTemper) running NT Control software (version 1.0.1). All experiments were performed in triplicate and data analyzed with the “KD fit model” in the NT Analysis software (version 2.0.2).

[3] = biological target: T3, recombinant human TSG-6 (Homo sapiens, UniProt P19827+P98066); experiment: In vitro HC-transfer assay (IαI + rhTSG-6, Western blot anti-HC1); assay type: biochemical; conditions: 15 μM HA, 1.8 μM IαI, rhTSG-6, 2 h at 37 °C; for Substrate for HC transfer: Table 6; for Activity as substrate for HC transfer (text): Western blot anti-HC1
T3 construct: TSG-6–mediated HC-transfer assays (using full-length TSG6); purchased R&D Systems
Protocol: Covalent transfer of HC from IαI onto unmodified and chemically modified HA oligosaccharides was analyzed using the assay described previously ([26]). All reactions were performed using a buffer of 20 mM Hepes, pH 7.5, 150 mM NaCl, and 5 mM MgCl2. In a “standard” assay, HA oligosaccharides were at 15 μM, human IαI ([97]) 1.8 at μM (based on a molecular weight of 180 kDa), and recombinant human TSG-6 (R&D Systems) at 2.8 μM (based on a molecular weight of 35 kDa). Reaction mixtures were analyzed by SDS-PAGE using 4 to 12% bis-tris polyacrylamide gels (Invitrogen). For Western blot analysis, proteins were transferred onto nitrocellulose membrane (GE Healthcare) and incubated with antisera against HC1 (CP7, 1:10,000; ([98])). Bound primary antibody was detected using goat-anti-rabbit IgG conjugated to IR dye (LI-COR Biosciences) and blots imaged using an Odyssey Clx near-IR fluorescence imaging system (LICOR Biosciences).

[4] = Table 4, ITC, 25 °C, 5 mM MES pH 6.0, mean ± SEM, four titrations
[5] = Table 4, ITC, 25 °C, 5 mM MES pH 6.0, mean ± SEM
[6] = Table 4, ITC, 25 °C, 5 mM MES pH 6.0, mean ± SEM, four titrations, read-out: KD

T2 sequence (P16070 20-169): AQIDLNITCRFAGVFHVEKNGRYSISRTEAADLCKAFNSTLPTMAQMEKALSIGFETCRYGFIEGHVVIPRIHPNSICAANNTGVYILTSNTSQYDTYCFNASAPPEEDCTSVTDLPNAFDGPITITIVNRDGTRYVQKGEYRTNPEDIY
T3 sequence (P98066 18-277): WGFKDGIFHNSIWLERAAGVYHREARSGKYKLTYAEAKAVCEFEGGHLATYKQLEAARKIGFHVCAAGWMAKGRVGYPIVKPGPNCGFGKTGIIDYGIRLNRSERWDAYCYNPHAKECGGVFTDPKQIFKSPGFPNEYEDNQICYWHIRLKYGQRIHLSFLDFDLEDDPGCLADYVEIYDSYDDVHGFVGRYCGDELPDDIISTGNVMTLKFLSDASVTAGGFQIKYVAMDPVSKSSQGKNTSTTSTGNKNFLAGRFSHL
T3 sequence (P19827 35-672 limits assumed): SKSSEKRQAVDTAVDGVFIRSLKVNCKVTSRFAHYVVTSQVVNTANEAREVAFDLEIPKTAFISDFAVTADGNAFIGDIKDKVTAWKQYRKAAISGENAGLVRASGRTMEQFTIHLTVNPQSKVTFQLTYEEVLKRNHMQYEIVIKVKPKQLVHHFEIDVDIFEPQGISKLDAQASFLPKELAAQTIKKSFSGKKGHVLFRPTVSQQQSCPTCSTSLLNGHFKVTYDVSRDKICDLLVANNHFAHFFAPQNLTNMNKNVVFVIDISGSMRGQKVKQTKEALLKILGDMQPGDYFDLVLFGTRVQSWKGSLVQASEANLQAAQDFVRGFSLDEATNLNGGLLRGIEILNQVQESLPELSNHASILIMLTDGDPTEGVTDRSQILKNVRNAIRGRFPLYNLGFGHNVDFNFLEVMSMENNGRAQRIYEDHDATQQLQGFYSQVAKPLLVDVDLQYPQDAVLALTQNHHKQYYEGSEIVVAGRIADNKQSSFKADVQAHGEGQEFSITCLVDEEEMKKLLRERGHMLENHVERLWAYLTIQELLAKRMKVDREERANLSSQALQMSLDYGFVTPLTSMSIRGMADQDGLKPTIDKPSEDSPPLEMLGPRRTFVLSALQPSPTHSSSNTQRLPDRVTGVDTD
T1 sequence (P98066 36-129 limits assumed): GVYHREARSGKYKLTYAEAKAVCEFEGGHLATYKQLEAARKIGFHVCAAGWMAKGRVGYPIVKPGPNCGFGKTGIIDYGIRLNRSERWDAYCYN

Structure (SMILES)	N [1, 4]	ΔG [1, 5] [kcal/mol]	ΔH [1, 5] [kcal/mol]	−TΔS [1, 5] [kcal•mol^a1]	Kd [1, 6] [µM]	% Binding affinity Link_TSG6 [1] [%]	% of binding to hisCD44_HABD^20–169 compared to the unmodified oligosaccharide of the same length [2] [%]	% HAx^AN: percentage of binding affinity (KB) compared to the unmodified oligosaccharide of the same length [2] [%]	Kd [2] [µM]	% Binding affinity hisCD44_HABD^20–169 [2] [%]	Substrate for HC transfer [3]	% of binding to Link_TSG6 compared to the unmodified oligosaccharide of the same length ([1]; ITC) [%]	Fold increase in affinity for CD44_HABD compared to the unmodified oligosaccharide [2] [fold]	Activity as substrate for HC transfer (text) [3]	Fold increase in affinity for Link_TSG6 compared to the unmodified oligosaccharide ([1]; ITC) [fold]	Kd ([1]; ITC, read-out: KD for Link_TSG6) [µM]	Fold reduction in affinity for Link_TSG6 compared to the unmodified oligosaccharide ([1]; ITC) [fold]
CC(=O)N[C@H]1[C@H](O[C@H]2[C@H](O)[C@@H](O)[C@H](O[C@H]3[C@H](O)[C@@H](CO)O[C@@H](O[C@H]4[C@H](O)[C@@H](O)[C@H](O[C@H]5[C@H](O)[C@@H](CO)O[C@@H](O[C@H]6[C@H](O)[C@@H](O)[C@H](O[C@@H]([C@H](O)[C@H](O)CO)[C@H](CNc7cc[nH]n7)NC(C)=O)O[C@@H]6C(=O)O)[C@@H]5NC(C)=O)O[C@@H]4C(=O)O)[C@@H]3NC(C)=O)O[C@@H]2C(=O)O)O[C@H](CO)[C@@H](O)[C@@H]1O[C@@H]1O[C@H](C(=O)O)[C@@H](O)[C@H](O)[C@H]1O [HA8-3APY]	1.19 ± 0.06	-8.97 ± 0.07	-5.70 ± 0.34	−3.28 ± 0.28	0.27 ± 0.03	115	23	23	220 ± 22	23	Yes	–	–	–	–	–	–
CC(=O)N[C@H]1[C@H](O[C@H]2[C@H](O)[C@@H](O)[C@H](O[C@H]3[C@H](O)[C@@H](CO)O[C@@H](O[C@H]4[C@H](O)[C@@H](O)[C@H](O[C@@H]([C@H](O)[C@H](O)CO)[C@H](CNc5ccc6c(c5)CCC6)NC(C)=O)O[C@@H]4C(=O)O)[C@@H]3NC(C)=O)O[C@@H]2C(=O)O)O[C@H](CO)[C@@H](O)[C@@H]1O[C@@H]1O[C@H](C(=O)O)[C@@H](O)[C@H](O)[C@H]1O [HA6-5AI]	1.03 ± 0.02	-8.43 ± 0.08	-7.46 ± 0.37	−0.96 ± 0.42	0.68 ± 0.08	162	133	133	77 ± 12	133	No	~162	1.3	No HC•HA6 complexes were observed	–	–	–
CC(=O)N[C@H]1[C@H](O[C@H]2[C@H](O)[C@@H](O)[C@H](O[C@H]3[C@H](O)[C@@H](CO)O[C@@H](O[C@H]4[C@H](O)[C@@H](O)[C@H](O[C@@H]([C@H](O)[C@H](O)CO)[C@H](CNc5cccc6c5CCC6)NC(C)=O)O[C@@H]4C(=O)O)[C@@H]3NC(C)=O)O[C@@H]2C(=O)O)O[C@H](CO)[C@@H](O)[C@@H]1O[C@@H]1O[C@H](C(=O)O)[C@@H](O)[C@H](O)[C@H]1O [HA6-4AI]	0.97 ± 0.03	-7.98 ± 0.03	-7.16 ± 0.32	−0.82 ± 0.30	1.42 ± 0.06	77	28	28	369 ± 43	28	No	–	–	No HC•HA6 complexes were observed	–	–	–
CC(=O)N[C@H]1[C@H](O[C@H]2[C@H](O)[C@@H](O)[C@H](O[C@H]3[C@H](O)[C@@H](CO)O[C@@H](O[C@H]4[C@H](O)[C@@H](O)[C@H](O[C@@H]([C@H](O)[C@H](O)CO)[C@H](CNc5cc[nH]n5)NC(C)=O)O[C@@H]4C(=O)O)[C@@H]3NC(C)=O)O[C@@H]2C(=O)O)O[C@H](CO)[C@@H](O)[C@@H]1O[C@@H]1O[C@H](C(=O)O)[C@@H](O)[C@H](O)[C@H]1O [HA6-3APY]	0.93 ± 0.02	-7.77 ± 0.15	-7.82 ± 0.73	0.04 ± 0.87	2.24 ± 0.68	49	91	91	113 ± 6	91	Yes	–	–	good substrates; also recorded: could become covalently coupled to an HC	–	–	–
CC(=O)N[C@H]1[C@H](O[C@H]2[C@H](O)[C@@H](O)[C@H](O[C@H]3[C@H](O)[C@@H](CO)O[C@@H](O[C@H]4[C@H](O)[C@@H](O)[C@H](O[C@H]5[C@H](O)[C@@H](CO)O[C@@H](O[C@H]6[C@H](O)[C@@H](O)[C@H](O[C@@H]([C@H](O)[C@H](O)CO)[C@H](CNc7ccc8c(c7)CCC8)NC(C)=O)O[C@@H]6C(=O)O)[C@@H]5NC(C)=O)O[C@@H]4C(=O)O)[C@@H]3NC(C)=O)O[C@@H]2C(=O)O)O[C@H](CO)[C@@H](O)[C@@H]1O[C@@H]1O[C@H](C(=O)O)[C@@H](O)[C@H](O)[C@H]1O [HA8-5AI]	0.97 ± 0.02	-9.34 ± 0.11	-7.43 ± 0.25	−1.91 ± 0.33	0.15 ± 0.03	207	96	96	54 ± 10	96	Yes	207	–	–	–	–	–
COc1ccc(C(=O)O)c(NC[C@H](NC(C)=O)[C@@H](O[C@@H]2O[C@H](C(=O)O)[C@@H](O[C@@H]3O[C@H](CO)[C@@H](O)[C@H](O[C@@H]4O[C@H](C(=O)O)[C@@H](O[C@@H]5O[C@H](CO)[C@@H](O)[C@H](O[C@@H]6O[C@H](C(=O)O)[C@@H](O)[C@H](O)[C@H]6O)[C@H]5NC(C)=O)[C@H](O)[C@H]4O)[C@H]3NC(C)=O)[C@H](O)[C@H]2O)[C@H](O)[C@H](O)CO)c1 [HA6-2A4MBA]	1.00 ± 0.02	-8.64 ± 0.04	-10.07 ± 0.28	1.44 ± 0.25	–	238	52	52	198 ± 29	52	Yes	238	–	weak substrates; also recorded: could become covalently coupled to an HC	2.4	0.46	–
COc1ccc(C(=O)O)c(NC[C@H](NC(C)=O)[C@@H](O[C@@H]2O[C@H](C(=O)O)[C@@H](O[C@@H]3O[C@H](CO)[C@@H](O)[C@H](O[C@@H]4O[C@H](C(=O)O)[C@@H](O[C@@H]5O[C@H](CO)[C@@H](O)[C@H](O[C@@H]6O[C@H](C(=O)O)[C@@H](O[C@@H]7O[C@H](CO)[C@@H](O)[C@H](O[C@@H]8O[C@H](C(=O)O)[C@@H](O)[C@H](O)[C@H]8O)[C@H]7NC(C)=O)[C@H](O)[C@H]6O)[C@H]5NC(C)=O)[C@H](O)[C@H]4O)[C@H]3NC(C)=O)[C@H](O)[C@H]2O)[C@H](O)[C@H](O)CO)c1 [HA8-2A4MBA]	1.04 ± 0.08	-8.23 ± 0.40	-8.06 ± 1.55	−0.16 ± 1.94	1.46 ± 0.96	21	141	141	36 ± 9	141	Yes	21	1.4	–	–	–	4.8
